Experimental data: patent US9145373B2, “Certain kynurenine-3-monooxygenase inhibitors, pharmaceutical compositions, and methods of use thereof” (CHDI FOUNDATION, INC., priority 2008, dated 2015)

Molecular target: T1, KMO mouse enzyme (Mus musculus, UniProt Q91WN4)
T1 construct: KMO enzyme prepared at Evotec from mouse liver (4-6 weeks old) via mitochondria isolation; from tissue; host or cells: mouse liver (4-6 weeks old), mitochondria isolation, prepared at Evotec
Test: KMO mouse enzyme assay: L-Kynurenine hydroxylation to 3-Hydroxy-Kynurenine monitored by LC/MS (MRM)
Format: biochemical
Conditions: compound at 10 μM; KMO enzyme from mouse liver mitochondria; read-out: INH.Mouse @ 10 μM
Outline: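 Enzyme is a mitochondrial preparation from 4-6-week-old mouse liver, with L-kynurenine as substrate in potassium phosphate buffer, pH 7.4. 3-Hydroxy-kynurenine formed is quantified by LC/MS using multiple reaction monitoring. Compound stocks were 10 mM in DMSO.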

T1 sequence (Q91WN4 whole entry): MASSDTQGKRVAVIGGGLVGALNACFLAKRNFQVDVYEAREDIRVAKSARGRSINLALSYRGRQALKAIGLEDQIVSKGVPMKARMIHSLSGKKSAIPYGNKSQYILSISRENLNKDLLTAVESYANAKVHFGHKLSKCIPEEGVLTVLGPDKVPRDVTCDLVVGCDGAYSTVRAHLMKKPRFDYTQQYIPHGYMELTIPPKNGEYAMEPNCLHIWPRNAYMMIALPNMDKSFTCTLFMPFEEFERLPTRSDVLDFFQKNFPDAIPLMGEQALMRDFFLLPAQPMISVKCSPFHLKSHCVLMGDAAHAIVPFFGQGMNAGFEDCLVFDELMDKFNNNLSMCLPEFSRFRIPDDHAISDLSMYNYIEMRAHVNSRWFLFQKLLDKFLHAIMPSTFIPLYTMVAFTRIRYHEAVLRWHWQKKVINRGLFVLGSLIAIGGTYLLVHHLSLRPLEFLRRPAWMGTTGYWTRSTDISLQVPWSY

In order of falling inhibition at 10 µM:
1. O=C(c1cc(-c2cccc(Cl)c2)ncn1)N1CCCc2ccccc21 [[6-(3-Chloro-phenyl)-pyrimidin-4-yl]-(3,4-dihydro-2H-quinolin-1-yl)-methanone]  100%
2. O=C(c1cc(-c2cccc(Cl)c2)ncn1)N1CCC(O)CC1 [[6-(3-Chloro-phenyl)-pyrimidin-4-yl]-(4-hydroxy-piperidin-1-yl)-methanone]  100%
3. O=C(c1cc(-c2cccc(Cl)c2)ncn1)N1CCc2cc(F)ccc21 [[6-(3-Chloro-phenyl)-pyrimidin-4-yl]-(5-fluoro-2,3-dihydro-indol-1-yl)-methanone]  100%
4. O=C(c1cc(-c2cccc(Cl)c2)ncn1)N1CCOCC1 [[6-(3-Chloro-phenyl)-pyrimidin-4-yl]-morpholin-4-yl-methanone]  100%
5. O=C(c1cc(-c2cccc(Cl)c2)ncn1)N1CCCC1 [[6-(3-Chloro-phenyl)-pyrimidin-4-yl]-pyrrolidin-1-yl-methanone]  90.5%
6. CC1CCN(C(=O)c2cc(-c3cccc(Cl)c3)ncn2)CC1 [[6-(3-Chloro-phenyl)-pyrimidin-4-yl]-(4-methyl-piperidin-1-yl)-methanone]  88.2%
7. O=C(c1cc(-c2cccc(Cl)c2)ncn1)N1CC[C@H](O)C1 [[6-(3-Chloro-phenyl)-pyrimidin-4-yl]-((S)-3-hydroxy-pyrrolidin-1-yl)-methanone]  84.9%
8. O=C(c1cc(-c2cccc(Cl)c2)ncn1)N1CC[C@@H](O)C1 [[6-(3-Chloro-phenyl)-pyrimidin-4-yl]-((R)-3-hydroxy-pyrrolidin-1-yl)-methanone]  83.9%
9. CN1CCN(C(=O)c2cc(-c3cccc(Cl)c3)ncn2)CC1 [[6-(3-Chloro-phenyl)-pyrimidin-4-yl]-(4-methyl-piperazin-1-yl)-methanone]  64.3%
